Assay results taken from patent US9598441B2, “Therapeutic compounds and methods” (Wayne State University, priority 2011, dated 2017).

Key:
[1] = system: caspase-3, caspase-8, caspase-9, caspase-2; assay: ApoAlert Caspase profiling plate, fluorescence-based; assay type: cell-based
Description: For apoptosis ELISA assay, 4−5×10^2 cells were seeded in 96-well plates and treated essentially as indicated in the MTT assay above. Untreated as well as treated cells were lysed, and levels of mono and oligo-nucleosomal DNA fragments in the lysates were determined by measuring optical density of each sample at 405 nm and 495 nm wavelengths. […] For TUNEL labeling, the cells were treated with various agents, fixed, labeled and photographed essentially as detailed in immuno-localization protocols described before (Zhang, L., Levi, E., Majumder, P., Yu, Y., Aboukameel, A., Du, J., Xu, H., Mohammad, R. M., Hatfield, J. S., Wali, A., Adsay, V., Majumdar, A. P. N., and Rishi, A. K. (2007) Mol. Cancer. Ther. 6(5), 1661-1672). […] Cell lysates derived from vehicle DMSO (Control) or CFM-4-treated cells were added to the wells that had immobilized fluorogenic caspase-3, caspase-8, caspase-9, or caspase-2 substrates. The fluorescence released from the activated caspase-dependent cleavage of respective substrate was detected by a plate reader at the excitation and emission wavelengths of 380 nm and 460 nm, respectively.

[2] = system: CARP-1, cyclin B1, Cdc20, Cdh1, APC-2, CDKIs, caspases, p38, Bcl2 family proteins; assay: Western blot of protein levels in treated cells; assay type: cell-based
Description: Logarithmically growing cells were either untreated or treated with different agents for various time periods. The cells were lysed to prepare protein extracts. IP was carried out by incubating approximately 1 mg of the protein lysate with appropriate antibodies, and the immunoprecipitates or cell lysates were then electrophoresed on 9-12% SDS-polyacrylamide gels, and transferred to nitrocellulose membranes. The membranes were subsequently probed with various antibodies to determine expression/presence of the corresponding proteins. The cell growth inhibition was assessed by using MTT assay. Briefly, MTT (3-[4,5-Dimethylthiazol-2-yl]-2,5diphenyltetrazolium bromide) was dissolved in sterile 1×PBS to prepare a stock solution of 5 mg/ml. The solution was subsequently filtered through 0.2 μm filter and stored at 2-8° C. 4−5×10^2 cells were seeded in 96-well plates. After 72 h incubation with or without different agents, MTT stock solution was added to each culture being assayed to equal one tenth the original culture volume, followed by incubation of cells at 37° C. for another 2 h. At the end of the incubation, the media was removed and cells were treated with 100-200 μl of DMSO to solubilize the dye. The assessment of the live cells was derived by measuring the absorbance of the converted dye at wavelength of 570 nm.

O=C1N(Cc2ccccc2Cl)c2ccccc2C12NN=C(c1ccccc1)S2 (centres unmarked) [CFM-4, 1-(2-chlorobenzyl)-5′-phenyl-3′H-spiro[indoline-3,2′-[1,3,4]thiadiazol]-2-one]
activation of caspases (fluorescence-based quantitative assay) [1]: activation of caspases 3, 8, 9, and 2
APC-2 levels (WB) [2]: unaffected
Bax expression (WB) [2]: failed to stimulate Bax expression
Cdc20 levels (WB) [2]: significantly reduced
Cdh1 levels (WB) [2]: modest decline
cleavage of caspases (WB) [2]: cleavage of caspases 9 and 8
tBid levels (WB) [2]: modest increase in tBid levels
CARP-1 levels (WB) ([2]; 50 nM velcade 6 h or 24 h, 20 μM CFM-4 24 h): robust increase in CARP-1 levels
p38 activation (WB) ([2]; 20 μM, from 6 h, sustained through 24 h): activation (phosphorylation) of p38
levels of p21WAF1/CIP1 and p27KIP1 CDKIs (WB) ([2]; 0.5-1.0 h exposure): elevated
levels of p21WAF1/CIP1 and p27KIP1 CDKIs (WB) ([2]; 3 h and beyond): decline
cyclin B1 levels (WB) ([2]; 6 h and subsequent treatment periods): depleted cyclin B1
levels of BimEL (WB) ([2]; 12 h or 24 h treatments): declined significantly
levels of Bims isoform (WB) ([2]; 12 h or 24 h treatments): concomitant increase
levels of E2 ubiquitin ligase UbCH10 (WB) ([2]; alone or in combination with caspase inhibitors): not affected
cleavage of PARP1 (WB) ([2]; cells transfected with scrambled SiRNAs): robust cleavage of PARP1
levels of Bcl2, BclXL, Noxa, and Puma proteins (WB) ([2]; different cells): failed to modulate levels
CARP-1 and cyclin B1 levels (WB) ([2]; drug (ADR or TAM)-resistant MCF-7 cells): elevated CARP-1 and reduced cyclin B1 levels
cyclin B1 levels (WB) ([2]; prostate and pancreatic cancer cells): induced cyclin B1 loss
CARP-1 levels (WB) ([2]; time course, 6 h and subsequent treatment periods): stimulated CARP-1 levels
